Legend:
22Rv1 cells = experiment: Cell proliferation assay (CellTiter-Glo, 5-day exposure), 22Rv1; type: cell-based; details: 22Rv1, 1000 cells/well, Th-227 labelled at 375 kBq/nmol, mean of 1 to 6 experiments
In short: (§1)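 Prostate cancer cells (VCaP 4000/well; 22Rv1, C4-2, LNCaP 1000/well), Th-227-labelled PSMA ligands, 5-day exposure; viability by CTG at start and end.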

C4-2 cells = experiment: Cell proliferation assay (CellTiter-Glo, 5-day exposure), C4-2; type: cell-based; details: C4-2, 1000 cells/well, Th-227 labelled at 375 kBq/nmol, mean of 1 to 6 experiments
In short: as §1

LNCaP cells = experiment: Cell proliferation assay (CellTiter-Glo, 5-day exposure), LNCaP; type: cell-based, human; details: LNCaP, 1000 cells/well; Th-227 labelled at 375 kBq/nmol; 5-day exposure; mean of 1 to 6 experiments
Method: Inhibition of cell proliferation of Thorium-227 labeled PMSA SMOL ligands was tested different prostate cancer cell lines, namely 22Rv1, VCaP, C4-2 (all from ATCC, Manassas, Va., USA) and LNCaP (DMSZ, Braunschweig). Cells were seeded using the following conditions in 384 well plates (Corning) in 30 μl of growth media at 4000 cells/well for VCaP cells and 1000 cells/well for 22Rv1, C4-2 and LNCaP cells.
Cells were cultivated an incubator at 37° C. and 5% C02 over night. On the following days cells were treated in triplicates with serial dilutions of PSMA-SMOLs labeled with Th-227 at a specific activity of 375 kBq/nmol (RCP>70% as assessed by iTLC analysis; compounds where RCP was between 50-70% in individual experiments are marked with an * in the table) using a D300e Digital Dispenser (Tecan). In sister plates cell viability at treatment start (d=0) was determined using CellTiter-Glo® assay (CTG, Promega, Madison, Wis., USA), by adding 30 μl per well CTG solution, incubation for 10 min and reading of Luminescence in a PheraStarFSX instrument (BMG Labtech). After a 5-day exposure in the presenced of test compounds, cell viability of treated or untreated control cells was determined again using CellTiter-Glo® assay (Promega, Madison, Wis., USA). […] The DRC software is a Biobook Spreadsheet that was developed by Bayer AG and Bayer Business Services on the IDBS E-Workbook Suite platform (IDBS: ID Business Solutions Ltd., Guildford, UK).

VCaP cells = experiment: Cell proliferation assay (CellTiter-Glo, 5-day exposure), VCaP; type: cell-based; details: 4000 cells/well, Th-227 labelled at 375 kBq/nmol, mean of 1 to 6 experiments
In short: as §1

[1] = test system: LNCaP human prostate cancer cells; experiment: LNCaP xenograft efficacy study (T/C tumor area); type: in vivo, SCID mice; details: Example V; day 27 after start of therapy; once 750 kBq/kg
In short: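 SCID mice with testosterone pellet bearing s.c. flank LNCaP xenografts (5×10^6 cells in Matrigel) were treated i.v. with a defined radioactive dose once tumors reached 35-50 mm^2 (n=10/group). Tumor area (caliper, longest diameter × perpendicular) measured 2-3× weekly; T/C ratio calculated from tumor areas when vehicle group closed.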

[2] = target: T1, PSMA-expressing LNCaP cells (Homo sapiens, UniProt Q04609); experiment: Internalization assay (membrane bound and internalized Th-227); type: cell-based; details: 10 nM radiolabeled compound, Th-227 at 375 kBq/nmol, triplicates
T1 construct: PSMA-expressing LNCaP cells; endogenous in cells; host or cells: LNCaP
Method: For internalization assays 24 well plates (#3526, Corning) were coated with 200 μl Poly-L-Lysine (0.1 mg/ml, #3438-100-01, Fa. Cultrex) per well for 2 h at 37° C. […] Cells were incubated at 37° C. and 5% CO2 over night. On the following day 400 μl of the media were removed and a total of 200 μl growth medium added supplemented with PSMA-SMOLs labeled with Th-227 at 375 kBq/nmol in triplicates. Radiochemical purity of the labeling was analyzed by instant thin layer chromatography and found to be above 70% for all compounds used. The final concentration of radiolabeled SMOLs was in the test wells was 10 nM. Cells were incubated for 30 min or 2 h. After the incubation time supernatants were taken off and cells washed with PBS. Thereafter cells were washed twice with 0.2 ml 50 mM Glycine-HCl buffer (#55097, Sigma Aldrich) and once with PBS and the washing solutions combined in counting vials (#TK75-018, Fa. Corning) and subjected to gamma counting (1470 Wizard automatic gamma counter, Wallac). The resulting counts were attributed to membrane bound radioactivity. Cells were then lysed with 500 μl 0.3N NaOH (#181691.1211, Fa. PanReac AppliChem ITW Reagents) followed by another wash with 500 μl PBS. The NaOH lysate as well as the final wash were combined in vials and subjected to gamma counting as described above. Measured radioactivity was attributed to internalized fraction. Results were calculated as fmol of Th-227 per/10^cells in the membrane bound and internalized fractions from triplicate values.

T1 sequence (Q04609 whole entry): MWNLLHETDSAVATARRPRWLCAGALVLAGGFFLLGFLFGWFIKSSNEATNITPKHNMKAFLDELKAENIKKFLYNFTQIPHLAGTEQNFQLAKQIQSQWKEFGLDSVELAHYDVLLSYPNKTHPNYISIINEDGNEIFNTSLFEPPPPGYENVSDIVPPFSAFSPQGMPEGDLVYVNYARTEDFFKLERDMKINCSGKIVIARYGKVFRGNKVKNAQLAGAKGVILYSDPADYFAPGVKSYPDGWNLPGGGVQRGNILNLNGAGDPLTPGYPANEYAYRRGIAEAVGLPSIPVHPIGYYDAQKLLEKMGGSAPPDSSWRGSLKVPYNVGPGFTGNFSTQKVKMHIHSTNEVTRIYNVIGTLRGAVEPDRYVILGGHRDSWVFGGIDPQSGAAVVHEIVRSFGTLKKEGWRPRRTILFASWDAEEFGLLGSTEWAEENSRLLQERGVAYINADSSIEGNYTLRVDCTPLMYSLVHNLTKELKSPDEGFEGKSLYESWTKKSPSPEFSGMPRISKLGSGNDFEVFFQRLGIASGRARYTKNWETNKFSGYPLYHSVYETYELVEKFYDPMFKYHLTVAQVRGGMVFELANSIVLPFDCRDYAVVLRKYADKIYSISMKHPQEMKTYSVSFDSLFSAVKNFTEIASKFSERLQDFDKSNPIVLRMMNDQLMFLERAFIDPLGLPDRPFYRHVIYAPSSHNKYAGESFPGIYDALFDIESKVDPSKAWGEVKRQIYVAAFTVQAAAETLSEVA

SMILES | Proliferation assay on cancer cell lines by TTCs Default Pivot #3 IC50 [kBq/mL] 22Rv1 1000cells 375kBq/nmol (mean) (22Rv1 cells) [kBq/mL] | Proliferation assay on cancer cell lines by TTCs Default Pivot #3 IC50 [kBq/mL] C4-2 1000cells 375kBq/nmol (mean) (C4-2 cells) [kBq/mL] | Proliferation assay on cancer cell lines by TTCs Default Pivot #3 IC50 [kBq/mL] LnCap 1000cells 375kBq/nmol (mean) (LNCaP cells) [kBq/mL] | Proliferation assay on cancer cell lines by TTCs Default Pivot #3 IC50 [kBq/mL] VCap 4000cells 375kBq/nmol (mean) (VCaP cells) [kBq/mL] | T/Carea [1] | Internalized in LNCaP fmol/10^6 cells 30 min ([2]; 30 min incubation) [fmol/10^6 cells] | Membrane bound in LNCaP fmol/10^6 cells 30 min ([2]; 30 min incubation) [fmol/10^6 cells] | Internalized in LNCaP fmol/10^6 cells 2 h ([2]; 2 h incubation) [fmol/10^6 cells] | Membrane bound in LNCaP fmol/10^6 cells 2 h ([2]; 2 h incubation) [fmol/10^6 cells]
CC1=CC2=C3[O][227Th-4]45678([O]C9=C(C=C(C)N(CC(=O)O)C9=[O+]4)C(=O)NCCN(CCCN(CCNC(=O)C4=C([O]5)C(=[O+]6)N(CC(=O)O)C(C)=C4)CCNC(=O)C4=C([O]7)C(=[O+]8)N(CC(=O)NC[C@H]5CC[C@H](C(=O)N[C@@H](Cc6ccc7ccccc7n6)C(=O)NCCCC[C@H](NC(=O)N[C@@H](CCC(=O)O)C(=O)O)C(=O)O)CC5)C(C)=C4)CCNC2=O)[O+]=C3N1CC(=O)O [Example 17-C monomer-227Th] | 0.86 | 0.5 | 0.04 | 1.48 | 0.36 |  |  |  | 
Cn1ccc2c(c1=O)[O][Th]13[O]c4c(ccn(C)c4=O)C(=O)NCCN(CCNC2=O)CC(Cc2ccc(NC(=O)CCC(=O)N[C@H](CCCNC(=N)N)C(=O)N[C@H](CCCNC(=N)N)C(=O)NC[C@H]4CC[C@H](C(=O)N[C@@H](Cc5ccc6ccccc6c5)C(=O)NCCCC[C@H](NC(=O)N[C@@H](CCC(=O)O)C(=O)O)C(=O)O)CC4)cc2)CN(CCNC(=O)c2ccn(C)c(=O)c2[O]1)CCNC(=O)c1ccn(C)c(=O)c1[O]3 (stereo partly shown) [Example 46-E-227Th] | 0.68 | 0.95 | 0.18 | 1.37 |  | 34 | 63 | 104 | 234
